Measurements taken from patent US20030110574A1, “Use of optical brighteners from the class of the stilbene compounds as antimicrobially active substances” (priority 2000, published 2003).

Tested on: bacterial mixture of Staphylococcus aureus ATCC 9144 and Escherichia coli NCTC 8196
Assay: Antimicrobial activity in agar plates after irradiation with xenon light, viable bacteria counted
Type: cell-based
Protocol: Determination of Antimicrobial Activity of Tinopal CBS-X after Irradiation with Light
The optical brightener of the formula [drawing 28]
is incorporated in agar plates and subsequently inoculated with bacteria and irradiated with xenon light for 10 minutes or 30 minutes.
The test is used to detect antimicrobial activity by comparison with unirradiated samples.
To this end, a 1.5% stock solution in DMSO is prepared.
0.5 and 0.1 ml of this solution are added to 15 ml of liquid agar (final concentration: 500 and 100 ppm).
After solidification and drying, a bacterial mixture of Staphylococcus aureus and Escherichia coli is plated out on the agar (final concentration cfu/ml:˜10^5). The plates are fixed on cotton by means of double sided Scotch tape and are irradiated with a xenon lamp for 10 or 30 minutes.
Unirradiated agar plattes including 100 and 500 ppm of Tinopal CBS-X and agar plates without Tinopal are incubated as controls.
All plates were incubated at 37° C. for about 48 hours. After incubation, viable bacteria are counted (see Table 1).
Staphylococcus aureus ATCC 9144
Escherichia coli NCTC 8196
Cultures 18 to 24 hours in casein soymeal peptone broth diluted 1:5000 (Staph.) and 1:10,000 (E. coli) and mixed together
The table reports the number of colony-forming units of bacteria after 10 minutes' and 30 minutes' irradiation.

SMILES: O=S(=O)([O-])c1ccccc1C=Cc1ccc(-c2ccc(C=Cc3ccccc3S(=O)(=O)[O-])cc2)cc1.[Na+].[Na+] [Tinopal CBS-X]
- number of colony-forming units of bacteria (100 ppm in agar, control not irradiated with xenon light (t: 0′)): 4.4 × 10^4 (t: 0′) colony-forming units
- number of colony-forming units of bacteria (100 ppm in agar, irradiated with xenon light, 10 minutes, incubated 37° C. about 48 hours): 2.3 × 10^4 colony-forming units
- number of colony-forming units of bacteria (100 ppm in agar, irradiated with xenon light, 30 minutes, incubated 37° C. about 48 hours): 5.1 × 10^2 colony-forming units
- reduction of the microorganisms compared with unirradiated plates and plates without Tinopal CBS-X (100 ppm or 500 ppm in agar nutrient medium, 30 minutes' irradiation with a xenon lamp): effective to substantially reduce the microorganisms
- number of colony-forming units of bacteria (500 ppm in agar, control not irradiated with xenon light (t: 0′)): 4.3 × 10^4 (t: 0′) colony-forming units
- number of colony-forming units of bacteria (500 ppm in agar, irradiated with xenon light, 10 minutes, incubated 37° C. about 48 hours): 3.0 × 10^4 colony-forming units
- number of colony-forming units of bacteria (500 ppm in agar, irradiated with xenon light, 30 minutes, incubated 37° C. about 48 hours): 1.5 × 10^2 colony-forming units
